Calls of active or inactive are those of the source. The calls are words filed in the database; no cut-off is given here.
What was measured:
[1] = target: T1, Protein cereblon/Androgen receptor (Homo sapiens, UniProt P10275+Q96SW2); assay: PROTAC activity at CRBN/AR in human LNCaP cells assessed as decrease in FKBP51 protein level incubated for 24 hrs by Western blot analysis; assay type: cell-based; conditions: dose 1-100 nM
[2] = target: T1, Protein cereblon/Androgen receptor; assay: PROTAC activity at CRBN/AR in human 22Rv1 cells assessed as induction of AR degradation at 50 uM preincubated with thalidomide followed by compound addition and measured after 12 hrs by Western blot analysis; assay type: cell-based
[3] = system: Protein cereblon/Androgen receptor (Homo sapiens), P10275+Q96SW2 [UNDEFINED MUTATION]; assay: PROTAC activity at CRBN/Androgen receptor splice variant 7 in human 22Rv1 cells assessed as induction of AR-V7 degradation at 20 nM incubated for 12 hrs by Western blot analysis (reference value: 0%); assay type: cell-based
[4] = target: T2, Protein cereblon/Eukaryotic peptide chain release factor GTP-binding subunit ERF3A (Homo sapiens, UniProt Q96SW2+P15170); assay: Molecular glue activity at CRBN/GSPT1 in human LNCaP cells assessed as induction of GSPT1 degradation at 20 nM by Western blot analysis; assay type: cell-based; conditions: time 1-36 hrs
LNCaP [5] = assay: Antitumor activity against human LNCaP cells xenografted in NOD SCID male mouse model assessed as tumor growth inhibition at 20 mg/kg, po administered daily for 26 days relative to control; assay type: functional; conditions: 624 h, time 26 day, read-out: TGI
[6] = target: T1, Protein cereblon/Androgen receptor; assay: PROTAC activity at CRBN/AR in human 22Rv1 cells assessed as induction of AR degradation at 20 nM incubated for 36 hrs by Western blot analysis (reference value: 0 %); assay type: cell-based
[7] = system: Protein cereblon/Androgen receptor (Homo sapiens), P10275+Q96SW2 [UNDEFINED MUTATION]; assay: PROTAC activity at CRBN/Androgen receptor splice variant 7 in human 22Rv1 cells assessed as induction of AR-V7 degradation at 20 uM preincubated with EPI-002 for 4 hrs followed by compound addition and measured after 36 hrs by Western blot analysis; assay type: cell-based
[8] = target: T1, Protein cereblon/Androgen receptor; assay: PROTAC activity at CRBN/AR in human 22Rv1 cells assessed as induction of AR degradation at 20 uM preincubated with EPI-002 for 4 hrs followed by compound addition and measured after 36 hrs by Western blot analysis; assay type: cell-based
VCaP = assay: Antiproliferative activity against AR-dependent human VCaP cells assessed as cell growth inhibition incubated for 72 hrs by Celltiter-lumi luminescent cell viability assay; assay type: functional, cell-based
[9] = target: T1, Protein cereblon/Androgen receptor; assay: In vivo PROTAC activity at CRBN/AR in male NOD SCID mouse model xenografted with human LNCaP cells assessed as reduction in androgen receptor level in tumor at 20 mg/kg, po administered daily for 26 days by Western blot analysis; assay type: functional, organism-based; conditions: time 26.0 day
[10] = target: T1, Protein cereblon/Androgen receptor; assay: PROTAC activity at CRBN/AR in human Enzalutamide-resistant VCaP cells assessed as induction of androgen receptor degradation at 1 to 300 nM by Western blot analysis; assay type: cell-based; conditions: dose 1-300 nM
[11] = system: Protein cereblon/Androgen receptor (Homo sapiens), P10275+Q96SW2 [UNDEFINED MUTATION]; assay: Induction of AR-V7 degradation in human 22Rv1 cells transfected with CRBN siRNA at 30 nM incubated for 24 hrs by Western blot analysis; assay type: cell-based
[12] = target: T1, Protein cereblon/Androgen receptor; assay: PROTAC activity at CRBN/AR in human 22Rv1 cells assessed as induction of AR degradation at 20 nM incubated for 24 hrs by Western blot analysis (reference value: 0 %); assay type: cell-based
[13] = Antiproliferative activity against human Enzalutamide-resistant LNCaP cells assessed as cell growth inhibition incubated for 72 hrs by Celltiter-lumi luminescent cell viability assay; assay type: functional, cell-based
CWR22R [14] = assay: Effect on androgen receptor splice variant 7 mRNA expression in human 22Rv1 cells at 1 to 10 nM incubated for 24 hrs by RT-PCR analysis; assay type: functional, cell-based; conditions: dose 1-10 nM
[15] = system: Protein cereblon/Androgen receptor (Homo sapiens), P10275+Q96SW2 [UNDEFINED MUTATION]; assay: PROTAC activity at CRBN/Androgen receptor splice variant 7 in human 22Rv1 cells assessed as induction of AR-V7 degradation at 20 nM incubated for 2 hrs by Western blot analysis (reference value: 0%); assay type: cell-based
[16] = target: T2, Protein cereblon/Eukaryotic peptide chain release factor GTP-binding subunit ERF3A; assay: Molecular glue activity at CRBN/GSPT1 in human VCaP cells assessed as induction of GSPT1 degradation at 50 nM preincubated with MLN4924 followed by compound addition and measured after 12 hrs by Western blot analysis; assay type: cell-based
[17] = Inhibition of AR W741L mutant (unknown origin) transcriptional activity transfected in HEK293T cells co-transfected with PSA-luciferase reporter and pRL-TK assessed as reduction in PSA-luciferase activity incubated for 24 hrs by luminescence based microplate reader analysis; assay type: cell-based, Homo sapiens
[18] = target: T2, Protein cereblon/Eukaryotic peptide chain release factor GTP-binding subunit ERF3A; assay: Molecular glue activity at CRBN/GSPT1 in human 22Rv1 cells assessed as induction of GSPT1 degradation at 50 nM preincubated with MG132 followed by compound addition and measured after 12 hrs by Western blot analysis; assay type: cell-based
[19] = target: T1, Protein cereblon/Androgen receptor; assay: PROTAC activity at CRBN/AR in human VCaP cells assessed as induction of AR degradation by measuring maximal efficacy incubated for 24 hrs by Western blot analysis relative to control; assay type: cell-based
[20] = target: T2, Protein cereblon/Eukaryotic peptide chain release factor GTP-binding subunit ERF3A; assay: Molecular glue activity at CRBN/GSPT1 in human 22Rv1 cells assessed as increase in GSPT1 polyubiquitination at 30 nM preincubated with compound for 12 hrs followed by MG132 addition and measured after 12 hrs by immunoprecipitation based Western blot analysis; assay type: cell-based; conditions: time 24.0 hrs
CWR22R [21] = assay: Cell cycle arrest in human 22Rv1 cells assessed as accumulation of cells at G1 phase at 3 nM incubated for 24 hrs by flow cytometric analysis (reference value: 49.7 %); assay type: functional
[22] = target: T2, Protein cereblon/Eukaryotic peptide chain release factor GTP-binding subunit ERF3A; assay: Molecular glue activity at CRBN/GSPT1 in human 22Rv1 cells assessed as induction of GSPT1 degradation at 20 nM incubated for 12 hrs by Western blot analysis (reference value: 0 %); assay type: cell-based
LNCaP [23] = assay: Antiproliferative activity against AR-dependent human LNCaP cells assessed as cell growth inhibition incubated for 72 hrs by Celltiter-lumi luminescent cell viability assay; assay type: functional, cell-based
[24] = Selectivity ratio of IC50 for antiproliferative activity against AR-independent human DU-145 cells assessed as cell growth inhibition to IC50 for antiproliferative activity against AR-dependent human VCaP cells assessed as cell growth inhibition; assay type: functional
CWR22R [25] = assay: Cell cycle arrest in human 22Rv1 cells assessed as accumulation of cells at G1 phase at 10 nM incubated for 24 hrs by flow cytometric analysis (reference value: 49.7 %); assay type: functional
[26] = target: T1, Protein cereblon/Androgen receptor; assay: PROTAC activity at CRBN/AR in human 22Rv1 cells assessed as increase in androgen receptor polyubiquitination at 30 nM preincubated with compound for 12 hrs followed by MG132 addition and measured after 12 hrs by immunoprecipitation based Western blot analysis; assay type: cell-based; conditions: time 24.0 hrs
[27] = target: T2, Protein cereblon/Eukaryotic peptide chain release factor GTP-binding subunit ERF3A; assay: Molecular glue activity at CRBN/GSPT1 in human 22Rv1 cells assessed as induction of GSPT1 degradation at 20 nM incubated for 6 hrs by Western blot analysis (reference value: 0 %); assay type: cell-based

T2 sequence (P15170 whole entry, looked up): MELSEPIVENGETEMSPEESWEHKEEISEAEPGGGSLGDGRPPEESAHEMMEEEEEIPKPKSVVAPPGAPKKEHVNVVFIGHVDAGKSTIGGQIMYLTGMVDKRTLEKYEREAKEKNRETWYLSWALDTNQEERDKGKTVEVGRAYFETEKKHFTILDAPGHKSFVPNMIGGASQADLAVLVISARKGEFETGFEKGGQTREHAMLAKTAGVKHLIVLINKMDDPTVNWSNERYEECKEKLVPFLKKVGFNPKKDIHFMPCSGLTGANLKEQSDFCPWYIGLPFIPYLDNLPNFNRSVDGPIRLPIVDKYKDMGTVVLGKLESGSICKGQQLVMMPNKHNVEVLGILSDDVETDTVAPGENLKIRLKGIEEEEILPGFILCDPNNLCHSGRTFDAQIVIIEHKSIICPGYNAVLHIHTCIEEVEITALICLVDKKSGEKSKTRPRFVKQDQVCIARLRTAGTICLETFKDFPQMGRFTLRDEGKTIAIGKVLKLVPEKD
T2 sequence (Q96SW2 whole entry, looked up): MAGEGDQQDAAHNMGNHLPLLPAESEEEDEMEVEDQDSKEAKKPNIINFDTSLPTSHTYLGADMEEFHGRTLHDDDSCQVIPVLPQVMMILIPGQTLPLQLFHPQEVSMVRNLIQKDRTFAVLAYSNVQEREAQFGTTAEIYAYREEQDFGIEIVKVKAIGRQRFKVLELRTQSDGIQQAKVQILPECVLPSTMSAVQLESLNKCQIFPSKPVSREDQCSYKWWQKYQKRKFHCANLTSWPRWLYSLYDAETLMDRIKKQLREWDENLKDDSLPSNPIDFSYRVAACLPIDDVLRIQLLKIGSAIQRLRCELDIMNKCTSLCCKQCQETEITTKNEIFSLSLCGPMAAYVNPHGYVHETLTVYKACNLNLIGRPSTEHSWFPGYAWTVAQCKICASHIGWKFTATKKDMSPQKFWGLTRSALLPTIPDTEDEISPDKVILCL
Protein cereblon/Androgen receptor (Homo sapiens), P10275+Q96SW2 [UNDEFINED MUTATION], sequence (P10275 whole entry, looked up, change not shown, canonical isoform): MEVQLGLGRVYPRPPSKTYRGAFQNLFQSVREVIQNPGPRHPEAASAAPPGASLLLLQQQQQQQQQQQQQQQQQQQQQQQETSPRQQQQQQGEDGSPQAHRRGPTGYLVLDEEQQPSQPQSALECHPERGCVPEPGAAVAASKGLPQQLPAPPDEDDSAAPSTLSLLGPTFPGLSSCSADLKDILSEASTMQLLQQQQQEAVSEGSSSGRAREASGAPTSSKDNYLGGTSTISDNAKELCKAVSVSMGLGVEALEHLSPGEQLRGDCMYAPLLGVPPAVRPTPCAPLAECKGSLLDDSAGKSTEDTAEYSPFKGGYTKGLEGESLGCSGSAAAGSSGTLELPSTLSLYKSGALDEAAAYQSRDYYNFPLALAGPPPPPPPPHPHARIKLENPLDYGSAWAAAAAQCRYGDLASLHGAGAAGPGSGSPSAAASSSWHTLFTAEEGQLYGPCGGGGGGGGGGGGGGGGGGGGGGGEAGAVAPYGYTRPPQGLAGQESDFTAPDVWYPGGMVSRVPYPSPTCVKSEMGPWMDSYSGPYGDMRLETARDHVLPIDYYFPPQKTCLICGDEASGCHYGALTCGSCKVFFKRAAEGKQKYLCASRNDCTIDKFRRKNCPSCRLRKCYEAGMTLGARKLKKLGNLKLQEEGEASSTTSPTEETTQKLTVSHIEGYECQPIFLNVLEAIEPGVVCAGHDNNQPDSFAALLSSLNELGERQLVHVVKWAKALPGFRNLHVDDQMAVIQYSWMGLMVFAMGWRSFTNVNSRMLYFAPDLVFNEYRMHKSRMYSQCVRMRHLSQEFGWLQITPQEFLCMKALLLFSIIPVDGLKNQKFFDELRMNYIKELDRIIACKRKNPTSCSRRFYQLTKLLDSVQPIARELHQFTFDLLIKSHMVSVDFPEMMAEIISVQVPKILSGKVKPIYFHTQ
Protein cereblon/Androgen receptor (Homo sapiens), P10275+Q96SW2 [UNDEFINED MUTATION], sequence (Q96SW2 whole entry, looked up, change not shown, canonical isoform): as the sequence (Q96SW2 whole entry, looked up) above
T1 sequence (P10275 whole entry, looked up): as the sequence (P10275 whole entry, looked up, change not shown, canonical isoform) above
T1 sequence (Q96SW2 whole entry, looked up): as the sequence (Q96SW2 whole entry, looked up) above

Structure (SMILES): COc1ccc(C(C)(C)c2cc(Cl)c(OCC3CCN(C(=O)CCCCCNc4ccc5c(c4)C(=O)N(C4CCC(=O)NC4=O)C5=O)CC3)c(C#N)c2)cc1 (stereo not drawn)
- Activity [1]: Dose-dependent-effect
- Activity [2]: inactive
- Activity [3]: 56.6%
- Activity [4]: Time-dependent-effect
- inhibition in vivo at 20 mg/kg (LNCaP [5]): 60%
- Activity [6]: 92.1%
- Activity [7]: inactive
- Activity [8]: inactive
- IC50 (VCaP): 1.5 nM
- Activity [9]: Active
- Activity [10]: Active
- Activity [11]: inactive
- Activity [12]: 94.1%
- IC50 [13]: 25.1 nM
- Activity (CWR22R [14]): Minimal_effect
- Activity [15]: 21.8%
- Activity [16]: inactive
- IC50 [17]: 62.3 nM
- Activity [18]: inactive
- Emax [19]: 82.5%
- Activity [20]: Active
- Activity (CWR22R [21]): 55.6%
- Activity [22]: 98.7%
- IC50 (LNCaP [23]): 2.8 nM
- Ratio IC50 [24]: 588
- Activity (CWR22R [25]): 58.9%
- Activity [26]: Active
- Activity [27]: 98.6%
